Data: ChEMBL document CHEMBL1201861, “Genomics of Drug Sensitity in Cancer screening data, Wellcome Trust Sanger Institute”
pIC50: −log10 of the molar value.

Assays:
Test in all cases: cells
[1] = system: EW-3; assay type: functional, cell-based, Homo sapiens; settings: Homo sapiens, EW-3;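 further: cell viability assay read-out, IC50 reflects inhibition of growth of the EW-3 cells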
Description: SANGER: Inhibition of human EW-3 cell growth in a cell viability assay.

[2] = system: NCI-H1395; assay type: functional, cell-based, Homo sapiens; settings: Homo sapiens, NCI-H1395;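 further: cell viability assay read-out quantifying reduced proliferation of human NCI-H1395 cells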
Description: SANGER: Inhibition of human NCI-H1395 cell growth in a cell viability assay.

[3] = system: BV-173; assay type: functional, cell-based, Homo sapiens; settings: Homo sapiens, BV-173
Description: SANGER: Inhibition of human BV-173 cell growth in a cell viability assay.

[4] = system: GAK; assay type: functional, cell-based, Homo sapiens; settings: Homo sapiens, GAK;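 further: cell growth inhibition read out by a cell viability assay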
Description: SANGER: Inhibition of human GAK cell growth in a cell viability assay.

[5] = system: EM-2; assay type: functional, cell-based, Homo sapiens; settings: Homo sapiens, EM-2;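 further: growth inhibition of EM-2 cells, read out with a cell viability assay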
Description: SANGER: Inhibition of human EM-2 cell growth in a cell viability assay.

[6] = system: SF-539; assay type: functional, cell-based, Homo sapiens; settings: Homo sapiens, SF-539;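 further: Read-out is a cell viability assay, with IC50 reflecting inhibition of cell growth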
Description: SANGER: Inhibition of human SF539 cell growth in a cell viability assay.

[7] = system: LB996-RCC; assay type: functional, cell-based, Homo sapiens; settings: Homo sapiens, LB996-RCC
Description: SANGER: Inhibition of human LB996-RCC cell growth in a cell viability assay.

[8] = system: NCI-H1770; assay type: functional, cell-based, Homo sapiens; settings: Homo sapiens, NCI-H1770;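 further: growth inhibition of NCI-H1770 cells determined with a viability readout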
Description: SANGER: Inhibition of human NCI-H1770 cell growth in a cell viability assay.

[9] = system: SNB-75; assay type: functional, cell-based, Homo sapiens; settings: Homo sapiens, SNB-75;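 further: cell viability assay measuring growth inhibition of human SNB-75 cells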
Description: SANGER: Inhibition of human SNB75 cell growth in a cell viability assay.

[10] = system: U-266; assay type: functional, cell-based, Homo sapiens; settings: Homo sapiens, U-266
Description: SANGER: Inhibition of human U-266 cell growth in a cell viability assay.

[11] = system: MOLT-16; assay type: functional, cell-based, Homo sapiens; settings: Homo sapiens, MOLT-16;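 further: growth inhibition of human MOLT-16 cells, read out with a cell viability assay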
Description: SANGER: Inhibition of human MOLT-16 cell growth in a cell viability assay.

[12] = system: BB49-HNC; assay type: functional, cell-based, Homo sapiens; settings: Homo sapiens, BB49-HNC;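 further: cell viability assay read-out, reported as inhibition of BB49-HNC cell growth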
Description: SANGER: Inhibition of human BB49-HNC cell growth in a cell viability assay.

[13] = system: RKO; assay type: functional, cell-based, Homo sapiens; settings: Homo sapiens, RKO;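 further: growth inhibition of human RKO cells, read out with a cell viability assay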
Description: SANGER: Inhibition of human RKO cell growth in a cell viability assay.

[14] = system: MN-60; assay type: functional, cell-based, Homo sapiens; settings: Homo sapiens, MN-60;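 further: growth inhibition of the MN-60 cell line, determined with a cell viability assay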
Description: SANGER: Inhibition of human MN-60 cell growth in a cell viability assay.

[15] = system: D-502MG; assay type: functional, cell-based, Homo sapiens; settings: Homo sapiens, D-502MG
Description: SANGER: Inhibition of human D-502MG cell growth in a cell viability assay.

[16] = system: ATN-1; assay type: functional, cell-based, Homo sapiens; settings: Homo sapiens, ATN-1;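 further: growth inhibition of human ATN-1 cells, read out with a cell viability assay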
Description: SANGER: Inhibition of human ATN-1 cell growth in a cell viability assay.

[17] = system: no-11; assay type: functional, cell-based, Homo sapiens; settings: Homo sapiens;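 further: growth inhibition of human NO-11 cells, read out with a cell viability assay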
Description: SANGER: Inhibition of human no-11 cell growth in a cell viability assay.

[18] = system: CTB-1; assay type: functional, cell-based, Homo sapiens; settings: Homo sapiens, CTB-1
Description: SANGER: Inhibition of human CTB-1 cell growth in a cell viability assay.

[19] = system: GT3TKB; assay type: functional, cell-based, Homo sapiens; settings: Homo sapiens, GT3TKB;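 further: growth inhibition of the cell line, read out with a cell viability assay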
Description: SANGER: Inhibition of human GT3TKB cell growth in a cell viability assay.

[20] = system: ML-2; assay type: functional, cell-based, Homo sapiens; settings: Homo sapiens, ML-2;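 further: growth inhibition of ML-2 cells, measured with a cell viability readout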
Description: SANGER: Inhibition of human ML-2 cell growth in a cell viability assay.

[21] = system: IA-LM; assay type: functional, cell-based; settings: Homo sapiens;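 further: cell viability assay measuring growth inhibition of human IA-LM cells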
Description: SANGER: Inhibition of human IA-LM cell growth in a cell viability assay.

[22] = system: HCC1187; assay type: functional, cell-based, Homo sapiens; settings: Homo sapiens, HCC1187;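 further: growth inhibition of HCC1187 cells, read out with a cell viability assay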
Description: SANGER: Inhibition of human HCC1187 cell growth in a cell viability assay.

[23] = system: U-87 MG; assay type: functional, cell-based, Homo sapiens, U-87MG ATCC; settings: Homo sapiens, U-87 MG;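 further: growth inhibition of the cells measured with a viability assay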
Description: SANGER: Inhibition of human U-87-MG cell growth in a cell viability assay.

[24] = system: GB-1; assay type: functional, cell-based, Homo sapiens; settings: Homo sapiens, GB-1;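 further: growth of GB-1 cells judged by a viability assay, IC50 marks the concentration inhibiting growth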
Description: SANGER: Inhibition of human GB-1 cell growth in a cell viability assay.

[25] = system: KE-37; assay type: functional, cell-based, Homo sapiens; settings: Homo sapiens, KE-37;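 further: growth inhibition of KE-37 cells, read out with a cell viability assay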
Description: SANGER: Inhibition of human KE-37 cell growth in a cell viability assay.

[26] = system: LS-123; assay type: functional, cell-based, Homo sapiens; settings: Homo sapiens, LS-123
Description: SANGER: Inhibition of human LS-123 cell growth in a cell viability assay.

[27] = system: IST-MEL1; assay type: functional, cell-based, Homo sapiens; settings: Homo sapiens, IST-MEL1;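 further: growth inhibition of the cell line, read out with a cell viability assay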
Description: SANGER: Inhibition of human IST-MEL1 cell growth in a cell viability assay.

[28] = system: K5; assay type: functional, cell-based, Homo sapiens; settings: Homo sapiens, K5
Description: SANGER: Inhibition of human K5 cell growth in a cell viability assay.

[29] = system: PSN1; assay type: functional, cell-based, Homo sapiens; settings: Homo sapiens, PSN1;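 further: suppression of growth of human PSN1 cells, read out by a cell viability assay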
Description: SANGER: Inhibition of human PSN1 cell growth in a cell viability assay.

[30] = system: NCI-H1092; assay type: functional, cell-based, Homo sapiens; settings: Homo sapiens, NCI-H1092;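 further: cell growth inhibition measured with a cell viability assay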
Description: SANGER: Inhibition of human NCI-H1092 cell growth in a cell viability assay.

[31] = system: NCI-H720; assay type: functional, cell-based, Homo sapiens; settings: Homo sapiens, NCI-H720;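 further: growth inhibition of human NCI-H720 cells determined by a cell viability assay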
Description: SANGER: Inhibition of human NCI-H720 cell growth in a cell viability assay.

[32] = system: NCI-H526; assay type: functional, cell-based, Homo sapiens; settings: Homo sapiens, NCI-H526;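 further: growth inhibition of the human NCI-H526 cell line, measured by a cell viability assay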
Description: SANGER: Inhibition of human NCI-H526 cell growth in a cell viability assay.

[33] = system: VA-ES-BJ; assay type: functional, cell-based, Homo sapiens; settings: Homo sapiens, VA-ES-BJ;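 further: growth inhibition of the VA-ES-BJ cell line, read out by a cell viability assay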
Description: SANGER: Inhibition of human VA-ES-BJ cell growth in a cell viability assay.

[34] = system: KARPAS-299; assay type: functional, cell-based, Homo sapiens; settings: Homo sapiens, KARPAS-299
Description: SANGER: Inhibition of human KARPAS-299 cell growth in a cell viability assay.

[35] = system: MOLT-4; assay type: functional, cell-based, Homo sapiens; settings: Homo sapiens, MOLT-4;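 further: growth inhibition of MOLT-4 cells, determined with a cell viability readout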
Description: SANGER: Inhibition of human MOLT-4 cell growth in a cell viability assay.

[36] = system: NCI-H1581; assay type: functional, cell-based, Homo sapiens; settings: Homo sapiens, NCI-H1581;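 further: cell growth inhibition read out by a viability assay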
Description: SANGER: Inhibition of human NCI-H1581 cell growth in a cell viability assay.

[37] = system: BB30-HNC; assay type: functional, cell-based, Homo sapiens; settings: Homo sapiens, BB30-HNC;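 further: growth inhibition of the cultured cell line, read out by a cell viability assay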
Description: SANGER: Inhibition of human BB30-HNC cell growth in a cell viability assay.

[38] = system: NCI-H1650; assay type: functional, cell-based, Homo sapiens; settings: Homo sapiens, NCI-H1650;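 further: growth inhibition of human NCI-H1650 cells measured by a cell viability assay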
Description: SANGER: Inhibition of human NCI-H1650 cell growth in a cell viability assay.

[39] = system: OCI-AML2; assay type: functional, cell-based, Homo sapiens; settings: Homo sapiens, OCI-AML2;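 further: growth inhibition of OCI-AML2 cells, read out with a cell viability assay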
Description: SANGER: Inhibition of human OCI-AML2 cell growth in a cell viability assay.

[40] = system: NOS-1; assay type: functional, cell-based, Homo sapiens; settings: Homo sapiens, NOS-1;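 further: growth inhibition of the human NOS-1 cell line, read out with a cell viability assay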
Description: SANGER: Inhibition of human NOS-1 cell growth in a cell viability assay.

[41] = system: TE-10; assay type: functional, cell-based, Homo sapiens; settings: Homo sapiens, TE-10;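 further: growth inhibition of TE-10 cells, measured by a cell viability assay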
Description: SANGER: Inhibition of human TE-10 cell growth in a cell viability assay.

[42] = system: KINGS-1; assay type: functional, cell-based, Homo sapiens; settings: Homo sapiens, KINGS-1;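 further: cell viability assay measuring suppression of KINGS-1 cell growth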
Description: SANGER: Inhibition of human KINGS-1 cell growth in a cell viability assay.

[43] = system: NB6; assay type: functional, cell-based, Homo sapiens; settings: Homo sapiens, NB6;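 further: growth inhibition of NB6 cells, read out by a cell viability assay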
Description: SANGER: Inhibition of human NB6 cell growth in a cell viability assay.

[44] = system: 697; assay type: functional, cell-based, Homo sapiens; settings: Homo sapiens
Description: SANGER: Inhibition of human 697 cell growth in a cell viability assay.

[45] = system: KG-1; assay type: functional, cell-based, Homo sapiens; settings: Homo sapiens, KG-1;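 further: growth inhibition of KG-1 cells, read out by a cell viability assay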
Description: SANGER: Inhibition of human KG-1 cell growth in a cell viability assay.

[46] = system: MFM-223; assay type: functional, cell-based, Homo sapiens; settings: Homo sapiens, MFM-223
Description: SANGER: Inhibition of human MFM-223 cell growth in a cell viability assay.

[47] = system: NCI-H2126; assay type: functional, cell-based, Homo sapiens; settings: Homo sapiens, NCI-H2126;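 further: growth inhibition of the cancer cell line, determined with a cell viability readout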
Description: SANGER: Inhibition of human NCI-H2126 cell growth in a cell viability assay.

[48] = system: ES5; assay type: functional, cell-based, Homo sapiens; settings: Homo sapiens, ES5;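 further: growth inhibition of human ES5 cells, read out by a cell viability assay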
Description: SANGER: Inhibition of human ES5 cell growth in a cell viability assay.

[49] = system: KLE; assay type: functional, cell-based; settings: Homo sapiens;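 further: growth inhibition of human KLE cells, read out with a cell viability assay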
Description: SANGER: Inhibition of human KLE cell growth in a cell viability assay.

[50] = system: COLO-668; assay type: functional, cell-based, Homo sapiens; settings: Homo sapiens, COLO-668
Description: SANGER: Inhibition of human COLO-668 cell growth in a cell viability assay.

COc1ccc(-c2cc3nccn3c(Nc3ncccc3C(N)=O)n2)cc1OC
pIC50 [1]: 5.31 | pIC50 [2]: < 5.10 | pIC50 [3]: < 5.10 | pIC50 [4]: < 5.10 | pIC50 [5]: < 5.10 | pIC50 [6]: < 5.10 | pIC50 [7]: 5.77 | pIC50 [8]: 5.58 | pIC50 [9]: < 5.10 | pIC50 [10]: 5.33 | pIC50 [11]: 6.24 | pIC50 [12]: 5.48 | pIC50 [13]: 5.56 | pIC50 [14]: < 5.10 | pIC50 [15]: < 5.10 | pIC50 [16]: < 5.10 | pIC50 [17]: < 5.10 | pIC50 [18]: < 5.10 | pIC50 [19]: < 5.10 | pIC50 [20]: < 5.10 | pIC50 [21]: 5.57 | pIC50 [22]: < 5.10 | pIC50 [23]: < 5.10 | pIC50 [24]: 5.55 | pIC50 [25]: 6.08 | pIC50 [26]: < 5.10 | pIC50 [27]: 5.34 | pIC50 [28]: 5.53 | pIC50 [29]: 6.05 | pIC50 [30]: < 5.10 | pIC50 [31]: < 5.10 | pIC50 [32]: 5.28 | pIC50 [33]: < 5.10 | pIC50 [34]: < 5.10 | pIC50 [35]: 5.24 | pIC50 [36]: < 5.10 | pIC50 [37]: 5.55 | pIC50 [38]: < 5.10 | pIC50 [39]: 5.35 | pIC50 [40]: 6.32 | pIC50 [41]: 5.76 | pIC50 [42]: < 5.10 | pIC50 [43]: < 5.10 | pIC50 [44]: 6.24 | pIC50 [45]: 5.54 | pIC50 [46]: < 5.10 | pIC50 [47]: < 5.10 | pIC50 [48]: < 5.10 | pIC50 [49]: < 5.10 | pIC50 [50]: < 5.10

COC(=O)[C@H](CCSC)NC(=O)c1ccc(NC[C@@H](N)CS)cc1-c1ccccc1
pIC50 [1]: < 5.99 | pIC50 [2]: < 5.99 | pIC50 [3]: < 5.99 | pIC50 [4]: < 5.99 | pIC50 [5]: < 5.99 | pIC50 [6]: < 5.99 | pIC50 [7]: < 5.99 | pIC50 [8]: < 5.99 | pIC50 [9]: < 5.99 | pIC50 [10]: < 5.99 | pIC50 [11]: < 5.99 | pIC50 [12]: < 5.99 | pIC50 [13]: < 5.99 | pIC50 [14]: < 5.99 | pIC50 [15]: < 5.99 | pIC50 [16]: < 5.99 | pIC50 [17]: < 5.99 | pIC50 [18]: < 5.99 | pIC50 [19]: < 5.99 | pIC50 [20]: < 5.99 | pIC50 [21]: 6.02 | pIC50 [22]: < 5.99 | pIC50 [23]: < 5.99 | pIC50 [24]: < 5.99 | pIC50 [25]: < 5.99 | pIC50 [26]: < 5.99 | pIC50 [27]: < 5.99 | pIC50 [28]: < 5.99 | pIC50 [29]: < 5.99 | pIC50 [30]: < 5.99 | pIC50 [31]: < 5.99 | pIC50 [32]: < 5.99 | pIC50 [33]: < 5.99 | pIC50 [34]: < 5.99 | pIC50 [35]: < 5.99 | pIC50 [36]: < 5.99 | pIC50 [37]: < 5.99 | pIC50 [38]: < 5.99 | pIC50 [39]: < 5.99 | pIC50 [40]: < 5.99 | pIC50 [41]: < 5.99 | pIC50 [42]: < 5.99 | pIC50 [43]: < 5.99 | pIC50 [44]: < 5.99 | pIC50 [45]: < 5.99 | pIC50 [46]: < 5.99 | pIC50 [47]: < 5.99 | pIC50 [48]: < 5.99 | pIC50 [49]: < 5.99 | pIC50 [50]: < 5.99
